From patent publication US9375457B2, “Composition comprising Rhizoma coptidis, Cortex phellodendri and Fructus gardeniae and for treating neurodegenerative diseases” (Hong Kong Baptist University, priority 2013, dated 2016)

Legend:
N2a-SwedAPP cells = assay: MTT viability assay in N2a-SwedAPP cells; assay type: cell-based, murine; conditions: mouse, 48 h
Protocol: (§1) N2a-SwedAPP cells were obtained from Dr. Gopal Thinakaran (University of Chicago, Chicago, Ill., USA). N2a-SwedAPP cells were cultured in Dulbecco's modified Eagle's medium (DMEM) and OPTI-MEM medium in a 1:1 ratio with 5% FBS, 50 μg/mL penicillin, 50 μg/mL streptomycin and 200 μg/mL G418 as previously described in Thinakaran G, Teplow D B, Siman R, Greenberg B, Sisodia S S (1996) Metabolism of the “Swedish” amyloid precursor protein variant in neuro2a (N2a) cells. J Biol Chem 271: 9390-9397. N2a-SwedAPP cells were incubated at 37° C. in a 5% CO2/95% humidity incubator. Cells were seeded 24 hours prior to the treatments. When growth reached close to 90% of confluence, cells were transferred into DMEM with 1% FBS for loading extracts. The final concentration of DMSO in all experiments was 0.1%, and this concentration caused no cytotoxicity.
For the viability assay, N2a-SwedAPP cells were seeded in a 96-well plate (7000 cells/well and 5000 cells/well). […] Finally, optical intensity was measured using a BioRad plate reader at 570 nm and a reference of 620 nm. […]
N2a-SwedishAPP cells are widely used as a cellular model of Alzheimer's disease, because they express a high level of APP and Aβ. The effects of HLJDT and its components on viability of N2SwedAPP cells are monitored by using the MTT assay. […]

TgCRND8 mice = conditions: chronic administration; cited from earlier work
[1] = test system: intracellular Aβ1-40 and Aβ1-42 in N2a-SwedAPP cells; assay: Sandwich ELISA of intracellular Aβ in N2a-SwedAPP cells; assay type: cell-based, murine; set-up: key to Aβs (overall influence): ↓ decreased; ↑ increased; ? unchanged
Protocol: N2a-SwedAPP cells were seeded at a density of 4×10^5/mL in DMEM medium in a 6-well plate and cultured for 1 day. After transfer, cells were treated with different doses of RC, CP, FG and RS for 48 hours, then the extracellular media were collected for detection of sAPPα and sAPPβ-sw, and cells were harvested to quantify F1-APP and β-actin by Western blot analysis, as described previously by Durairajan et al. For intracellular APP, APP-CTFs and Aβ preparation, cells were washed with ice-cold PBS twice and solubilized in ice-cold RIPA buffer with protease inhibitor cocktail added. Lysates were collected and centrifuged at 16,000×g for 15 minutes at 4° C. The resulting supernatants were collected, and their protein concentrations were determined with bicinchoninic acid (BCA) protein assay reagent (Thermo Scientific, IL, USA). […] The conditioned media were standardized to total cell lysate protein.
The levels of intracellular Aβ1-40 and Aβ1-42 are quantified by using a sandwich ELISA as previously described by Durairajan et al., 2011 with minor modification. Equal amounts of cell or brain lysates are used for Aβ quantification by sandwich ELISA. The monoclonal antibody 6E10 is used as the capture antibody by adding to ELISA plates (0.2 μg diluted in 0.1 M Na2CO3 (pH 9.6) per well) and incubated overnight at 4° C. The plates are washed with PBS (0.05% Tween 20) and blocked with 4% BlockAce (Serotec, Raleigh, N.C., USA) for 2 hours at room temperature. Equilibrated protein lysates from each treatment (a 100 μL volume is adjusted in all treatment groups by using PBS) are applied in duplicate and incubated at room temperature for 2 hours with constant rotation at 30 rpm. Biotinylated monoclonal anti-Aβ40 5C3 (50 ng per well) and biotinylated monoclonal 8G7 (50 ng per well) antibodies are used for detection of Aβ1-40 and Aβ1-42, respectively, and are diluted in 1% BlockAce and incubated for 2 hours at room temperature. Plates are thoroughly washed with PBS (0.05% Tween 20), and streptavidin conjugated HRP is added for 1 hour at room temperature. Finally the plates are washed four times with PBST before adding the substrate TMB for 30 minutes. Absorbance at 450 nm is measured in duplicate wells after addition of 2 M H2SO4. All ELISA experimental data are from three different days. Synthetic Aβ40 and Aβ42 peptides are used for construction of calibration curves, and Aβ is measured in lysates.

[2] = test system: APP processing (F1-APP, pAPPThr668, CTFs, sAPPα, sAPPβ-sw) in N2a-SwedAPP cells; assay: Western blot of APP metabolic products in N2a-SwedAPP cells; assay type: cell-based, murine; set-up: key to Fl-APP (overall influence) / CTFs (overall influence) / sAPPα (overall influence) / sAPPβ (overall influence): ↓ decreased; ↑ increased; ? unchanged
Protocol: as §1
To detect the levels of APP metabolic products, the cell lysates and the conditioned media were prepared as described in Durairajan S S K, Liu L F, Lu J H, Koo I, Maruyama K, Chung S K, Huang J D, Li M. (2011) Stimulation of non-amyloidogenic processing of amyloid-β protein precursor by cryptotanshinone involves activation and translocation of ADAM10 and PKC-α. J Alzheimer's Dis 25: 245-262, with minor modification. N2a-SwedAPP cells were seeded at a density of 4×10^5/mL in DMEM medium in a 6-well plate and cultured for 1 day. After transfer, cells were treated with different doses of RC, CP, FG and RS for 48 hours, then the extracellular media were collected for detection of sAPPα and sAPPβ-sw, and cells were harvested to quantify F1-APP and β-actin by Western blot analysis, as described previously by Durairajan et al. For intracellular APP, APP-CTFs and Aβ preparation, cells were washed with ice-cold PBS twice and solubilized in ice-cold RIPA buffer with protease inhibitor cocktail added. Lysates were collected and centrifuged at 16,000×g for 15 minutes at 4° C. The resulting supernatants were collected, and their protein concentrations were determined with bicinchoninic acid (BCA) protein assay reagent (Thermo Scientific, IL, USA). For sAPPα and sAPPβ-sw detection, the conditioned media are collected and frozen in liquid nitrogen, subjected to lyophilization at −40° C. under vacuum of 105 μbar for 2 days in order to remove all liquid. The conditioned media were standardized to total cell lysate protein.
For Western blot analysis from cell culture or mouse brain, 10-30 μg total protein is separated on 10% and 15% SDS-PAGE gels and blotted onto PVDF membranes for the detection of full length APP (F1-APP), CTFs, sAPPα, sAPPβ-sw, 3-actin and phosphorylated APP (pAPPThr668). After blocking with 5% skimmed milk, the blots are incubated with primary antibodies overnight at 4° C. with shaking. Blots are washed and incubated with HRP-conjugated secondary antibodies. The goat anti-mouse IgG is used when the primary antibody is 6E10 (1:1000), sAPPβ-sw (1:100), or anti-β-actin (1:5000), and the goat anti-rabbit IgG is used when the primary antibody is anti-CT15 (1:5000) or pAPPThr668 (1:1000). After incubation with HRP-conjugated secondary antibody, immunoblots are treated with ECL and developed using X-ray films (Fujifilm). Films are scanned, and the band intensity is analyzed using Image J software (NIH Image).
Stripped CT15 and 6E10 probed membranes are reincubated with pAPPThr668 and sAPPβ-sw 6A1 antibodies, respectively.
Western blotting of N2a-SwedAPP cells is used to test differences in the processing of Swedish mutant APP by HLJDT components. Several antibodies are used in Western blot analysis: CT15 recognizes full length APP (F1-APP), 6E10 identifies only α-secretase-cleaved APP i.e sAPPα, and the sAPPβ-sw specific for β-secretase cleavage of Swedish mutant APP.

In the case of `COc1ccc2cc3[n+](cc2c1OC)CCc1cc2c(cc1-3)OCO2` [berberine], the “non-toxic concentration (highest concentration that shows greater than 90% cell viability)” value (N2a-SwedAPP cells) is given as 12.5 µM, the “effect on Aβ pathology, gliosis and cognitive impairments” value (TgCRND8 mice) is given as “significantly reduce” and the “reduction of intracellular Aβ1-40” value ([1]; 12.5 μM, 48 h) is given as 37%. The “reduction of intracellular Aβ1-42” value ([1]; 12.5 μM, 48 h) was 25%, the “Aβs (overall influence)” value ([1]; N2a-SwedAPP cells) was “↓” and the “reduction of sAPPα level” value ([2]; 6.25 μM, 48 hours) was 30%. For the same molecule, the “reduction of sAPPβ-sw level” value ([2]; 6.25 μM, 48 hours) was 45%, the “reduction of CTFs level” value ([2]; 12.5 μM, 48 hours) was 67% and the “reduction of F1-APP level” value ([2]; 12.5 μM, 48 hours) was 54%. For the same molecule, the “reduction of pAPPThr668 level” value ([2]; 12.5 μM, 48 hours) was 42%, the “reduction of sAPPα level” value ([2]; 12.5 μM, 48 hours) was 58% and the “reduction of sAPPβ-sw level” value ([2]; 12.5 μM, 48 hours) was 70%. For the same molecule, the “CTFs (overall influence)” value ([2]; N2a-SwedAPP cells) was “↓”, the “Fl-APP (overall influence)” value ([2]; N2a-SwedAPP cells) was “↓” and the “sAPPα (overall influence)” value ([2]; N2a-SwedAPP cells) was “↓”. For the same molecule, the “sAPPβ (overall influence)” value ([2]; N2a-SwedAPP cells) was “↓”.
